Data on twelve molecules can be found in patent US11040981B2, “Pyrrolotriazine compounds and methods of inhibiting TAM kinases” (Syros Pharmaceuticals, Inc., priority 2017, dated 2021).

One assay deals with T1, TYRO3 (Homo sapiens, UniProt Q06418).
T1 sequence (Q06418 41-890): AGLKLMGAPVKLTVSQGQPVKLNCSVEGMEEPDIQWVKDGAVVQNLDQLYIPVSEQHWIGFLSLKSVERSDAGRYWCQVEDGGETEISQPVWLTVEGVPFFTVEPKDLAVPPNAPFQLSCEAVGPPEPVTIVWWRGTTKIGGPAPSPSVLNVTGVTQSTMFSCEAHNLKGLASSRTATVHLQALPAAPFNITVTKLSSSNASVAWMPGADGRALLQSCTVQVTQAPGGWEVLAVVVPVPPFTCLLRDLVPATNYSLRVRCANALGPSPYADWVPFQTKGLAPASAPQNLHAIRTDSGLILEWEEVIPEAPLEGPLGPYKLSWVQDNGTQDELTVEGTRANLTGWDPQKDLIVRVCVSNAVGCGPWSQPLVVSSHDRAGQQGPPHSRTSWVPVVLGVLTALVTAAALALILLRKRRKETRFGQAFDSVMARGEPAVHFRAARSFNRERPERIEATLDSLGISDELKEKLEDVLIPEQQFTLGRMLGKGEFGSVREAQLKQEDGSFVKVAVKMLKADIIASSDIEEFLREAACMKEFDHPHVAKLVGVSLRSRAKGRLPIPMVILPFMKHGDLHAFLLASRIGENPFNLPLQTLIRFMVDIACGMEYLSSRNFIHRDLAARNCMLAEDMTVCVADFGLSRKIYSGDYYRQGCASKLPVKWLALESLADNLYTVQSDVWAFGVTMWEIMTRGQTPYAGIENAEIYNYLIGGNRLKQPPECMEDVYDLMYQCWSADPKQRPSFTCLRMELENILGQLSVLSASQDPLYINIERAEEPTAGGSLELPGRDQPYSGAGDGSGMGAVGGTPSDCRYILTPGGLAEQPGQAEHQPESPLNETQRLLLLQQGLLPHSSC
Briefly: TR-FRET kinase activity assay, TYRO3. The format is biochemical. Conditions: ATP at Km, 60 minutes. In a few lines:
(§1)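 IC50 reflects the drop in TR-FRET between Eu anti-phosphotyrosine antibody and labelled peptide after a 60-minute room-temperature reaction. Buffer was 50 mM HEPES pH 7.5 with 10 mM MgCl2, 1 mM EGTA, 0.01% Brij 35 and 1 mM DTT, with ATP at Km per enzyme and EDTA quench.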
In general terms: Time-resolved FRET reads energy transfer from a long-lived donor to a nearby acceptor.

The next assay concerns the target T2, FLT3 (Homo sapiens, UniProt P36888).
T2 sequence (P36888 27-993): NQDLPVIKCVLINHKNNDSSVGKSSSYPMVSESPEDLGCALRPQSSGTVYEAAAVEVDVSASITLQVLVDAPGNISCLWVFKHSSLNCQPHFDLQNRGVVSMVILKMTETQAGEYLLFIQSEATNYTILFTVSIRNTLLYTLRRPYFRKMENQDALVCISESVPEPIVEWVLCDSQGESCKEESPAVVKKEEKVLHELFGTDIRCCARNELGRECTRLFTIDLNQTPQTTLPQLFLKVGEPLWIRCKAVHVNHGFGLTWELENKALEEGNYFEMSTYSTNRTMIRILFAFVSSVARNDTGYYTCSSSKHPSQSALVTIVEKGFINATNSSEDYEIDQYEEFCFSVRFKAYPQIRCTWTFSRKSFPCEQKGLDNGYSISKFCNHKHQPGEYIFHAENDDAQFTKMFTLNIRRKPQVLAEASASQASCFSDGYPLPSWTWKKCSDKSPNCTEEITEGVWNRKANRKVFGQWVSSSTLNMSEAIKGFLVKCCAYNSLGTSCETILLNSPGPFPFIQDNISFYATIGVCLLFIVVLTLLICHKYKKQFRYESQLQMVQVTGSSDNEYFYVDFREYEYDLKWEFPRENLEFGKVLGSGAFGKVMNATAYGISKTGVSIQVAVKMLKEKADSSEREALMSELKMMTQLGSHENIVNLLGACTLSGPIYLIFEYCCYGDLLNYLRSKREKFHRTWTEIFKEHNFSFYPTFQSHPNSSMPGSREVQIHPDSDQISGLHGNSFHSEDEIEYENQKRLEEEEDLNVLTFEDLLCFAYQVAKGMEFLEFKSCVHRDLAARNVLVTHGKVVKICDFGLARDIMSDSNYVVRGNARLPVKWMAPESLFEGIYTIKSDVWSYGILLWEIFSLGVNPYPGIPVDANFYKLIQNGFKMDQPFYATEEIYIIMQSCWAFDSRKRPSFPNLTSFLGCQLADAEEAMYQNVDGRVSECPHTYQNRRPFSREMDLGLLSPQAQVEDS
The experiment in a line: TR-FRET kinase activity assay, FLT3. The format is biochemical. Conditions: ATP at Km, 60 minutes. In a few lines: as §1

The term IC50 denotes the midpoint of a concentration-inhibition curve. With `CCN(C(=O)N1CCN(c2cc(-c3cc([C@H]4CC[C@H](O)CC4)n4nc(N[C@@H](C)COC)ncc34)ccn2)CC1)C(C)C` [Compound 514], the figures for the IC50 against TYRO3 and at FLT3 were at most 100 nM and 1000 to 10000 nM, respectively.

With `COC[C@H](C)Nc1ncc2c(-c3cnn(C4COC4)c3)cc([C@@H]3CC[C@@H](O)C(C)(C)C3)n2n1` [Compound 570], the IC50 on TYRO3 was at most 100 nM; at FLT3, 100 to 1000 nM.

In the case of `COC[C@H](C)Nc1ncc2c([C@H]3CC[C@@H](C(=O)N4CC5(COC5)C4)CC3)cc([C@H]3CC[C@H](O)CC3)n2n1` [Compound 579], the IC50 is at most 100 nM at TYRO3 and 1000 to 10000 nM against FLT3.

In the case of `COC[C@H](C)Nc1ncc2c(-c3ccnc(N4CCOC(C(C)(C)O)C4)c3)cc([C@H]3CC[C@H](O)CC3)n2n1` (stereo partly drawn) [Compound 534], the IC50 was at most 100 nM against TYRO3 and 100 to 1000 nM on FLT3.

As for `COC[C@H](C)Nc1ncc2c([C@H]3CC[C@H](C(C)=O)CC3)cc([C@H]3CC[C@H](O)CC3)n2n1` [Compound 576], the IC50 on TYRO3 was at most 100 nM; at FLT3 it was 1000 to 10000 nM.

For the molecule `COC[C@H](C)Nc1ncc2c(C3=CCOCC3)cc([C@H]3CC[C@H](O)CC3)n2n1` [Compound 141], the results for the IC50 against TYRO3 and on FLT3 were at most 100 nM and 100 to 1000 nM, respectively.

For the molecule `COCC(C)Nc1ncc2c(-c3ccc4[nH]cnc4c3)cc(C3CCC(O)CC3)n2n1` (stereo not drawn) [Compound 553], the results for the IC50 on TYRO3 and on FLT3 were at most 100 nM and 100 to 1000 nM, respectively.

Regarding `C[C@@H](COC(F)F)Nc1ncc2c(-c3ccc(S(C)(=O)=O)nc3)cc([C@H]3CC[C@H](O)CC3)n2n1` [Compound 513], the IC50 at TYRO3 is at most 100 nM; on FLT3, 100 to 1000 nM.

With `CC(COc1ccccc1)Nc1ncc2c(-c3cnn(C4COC4)c3)cc([C@H]3CC[C@H](O)CC3)n2n1` (mixture of isomers) [Compound 528], the IC50 was at most 100 nM on TYRO3 and 100 to 1000 nM on FLT3.

As for `Cc1nnc(C(C)(C)n2cc(-c3cc([C@H]4CC[C@H](O)CC4)n4nc(N[C@@H](C)COC(F)F)ncc34)cn2)o1` [Compound 517], the results for the IC50 against TYRO3 and on FLT3 were at most 100 nM and 1000 to 10000 nM, respectively.

For the molecule `COC[C@H](C)Nc1ncc2c(-c3cnn(C4COC4)c3)cc([C@H]3CC[C@@H](O)CC3)n2n1` [Compound 564], the IC50 against TYRO3 and against FLT3 was at most 100 nM in each case.

As for `COC[C@H](C)Nc1ncc2c(-c3ccnc(N4CCN(CC5COC5)CC4)c3)cc([C@H]3CC[C@H](O)CC3)n2n1` [Compound 512], the IC50 was at most 100 nM on TYRO3 and 100 to 1000 nM against FLT3.
